{"source": "patent US9340490B2", "about": "“Diagnostic agent for tumor” (SBI PHARMACEUTICALS CO., LTD., priority 2004, dated 2016)", "key": {"[1]": {"test_system": "MH 134 cell (ascitic liver cancer cell) tumor-bearing mice", "conditions": "female, C3H/He, mouse, in vivo, po", "experimental": "A mouse tumor-bearing cell (MH 134 cell: ascitic liver cancer cell) was intraperitoneally administered to mice (C3H/He line, 5-week-old, female) at a dose of 1×10^6 cells, and they were reared for 0 to 14 days. Ten days after the intraperitoneal administration of tumor-bearing cells, 50 μl of 0.12 M δ-aminolevulinic acid hydrochloride, δ-aminolevulinic acid methyl ester hydrochloride, δ-aminolevulinic acid hexyl ester hydrochloride or δ-aminolevulinic acid phosphate was orally administered to the mice to which the tumor-bearing cells had been intraperitoneally administered. From 10 to 20 μl of blood samples were collected from the orally administered mice 0, 0.25, 0.5, 2, 3, 4 or 6 hours thereafter. The thus collected blood was centrifuged at 2000×g for 5 minutes, 300 μl of ethyl acetate/acetic acid (2/1, v/v) was added to 5 μl of the supernatant (plasma), followed by mixing, 300 μl of 0.6 M NaOH solution was further added thereto, followed by mixing, and the NaOH layer was collected. To the remaining organic layer, 300 μl of 0.5 M aqueous hydrochloric acid solution was added, and the aqueous hydrochloric acid solution layer was collected. Fluorescence intensities of the NaOH layer and aqueous hydrochloric acid solution layer were measured (hydrochloric acid layer: excitation wavelength 400 nm, fluorescence wavelength 600 nm, NaOH layer: excitation wavelength 400 nm, fluorescence wavelength 619 nm), and respective concentrations were calculated from the standard solutions. In addition, δ-aminolevulinic acid hydrochloride, δ-aminolevulinic acid methyl ester hydrochloride, δ-aminolevulinic acid hexyl ester hydrochloride or δ-aminolevulinic acid phosphate was also orally administered (0.12 M, 50 μl) to normal mice as the control, and the same treatment was carried out."}, "normal mice [2]": {"test_system": "normal mice", "assay": "Blood protoporphyrin IX and uroporphyrin by fluorescence detection after oral administration, normal mice (Example 1)", "assay_type": "in vivo", "conditions": "2 hours after oral 50 μl of 0.12 M"}, "[3]": {"test_system": "MH 134 cell tumor-bearing mice", "assay": "Uroporphyrin I and III in blood by HPLC, tumor-bearing mice (Example 2)", "assay_type": "in vivo, mice (C3H/He line)", "conditions": "2 hours after oral 50 μl of 0.12 M", "experimental": "(§1) The samples were measured by HPLC (regarding the analyzing conditions, a fluorescence detector: excitation wavelength 406 nm, fluorescence wavelength 610 nm was used, a solution consisting of 12.5% acetonitrile, 1 M ammonium acetate and 0.27 mM EDTA, pH 5.15 (adjusted with acetic acid), was used as the eluting solution, ODS-AGtypeCAPCELLPAK, 4.6 mmφ×250 mm, particle diameter 5 μm (manufactured by Shiseido) was used as the column, and the measurement was carried out at a flow rate of 1.0 ml/min and at a temperature of 25° C.), and respective concentrations were calculated from the peak areas of standard solutions."}, "[4]": {"test_system": "MH 134 cell tumor-bearing mice", "assay": "Uroporphyrin I and III in urine by HPLC, tumor-bearing mice (Example 3)", "assay_type": "in vivo, mice (C3H/He line)", "experimental": "as §1, with “The thus collected” for “The”, “619” for “610”, “the” for “the peak areas of”"}, "normal mice [5]": {"test_system": "normal mice", "assay": "Uroporphyrin I and III in urine by HPLC, normal mice (Example 3)", "assay_type": "in vivo", "conditions": "2 hours after oral 50 μl of 0.12 M", "experimental": "as §1, with “The thus collected” for “The”, “619” for “610”, “the” for “the peak areas of”"}, "[6]": {"test_system": "MH 134 cell tumor-bearing mice", "assay": "Uroporphyrin and coproporphyrin in feces by HPLC, tumor-bearing mice (Example 4)", "assay_type": "in vivo, mice (C3H/He line)", "conditions": "2 hours after oral 50 μl of 0.12 M", "experimental": "To 10 mg in wet weight portion of the thus collected feces, 100 μl of an ethyl acetate-acetic acid mixture liquid (4/1, v/v) was added, the mixture was homogenized and then filtered using a filter paper, 10 μl of the filtrate was measured by HPLC (regarding the analyzing conditions, a fluorescence detector: excitation wavelength 406 nm, fluorescence wavelength 619 nm was used, a solution A: 80% acetonitrile/7% acetic acid/50 mM ammonium acetate mixture liquid and a solution B: 10% acetonitrile/4% acetic acid/50 mM ammonium acetate mixture liquid were used as the eluting solutions and subjected to a linear gradient of A/B (20/80)-A/B (90/10) for 30 minutes and then to the holding with solution A for 20 minutes, ODS-AGtypeCAPCELLPAK, 4.6 mmφ×250 mm, particle diameter 5 μm (manufactured by Shiseido) was used as the column, and the measurement was carried out at a flow rate of 1.0 ml/min and at a temperature of 25° C.), and respective concentrations were calculated from the peak areas of standard solutions."}, "normal nude mice": {"test_system": "normal nude mice", "assay": "Uroporphyrin and coproporphyrin in urine by HPLC, normal nude mice (Example 5)", "assay_type": "in vivo", "conditions": "4 hours after oral 50 μl of 0.12 M, corrected per creatinine", "experimental": "(§2) The thus collected urine was measured by HPLC (regarding the analyzing conditions, a fluorescence detector: excitation wavelength 406 nm, fluorescence wavelength 619 nm was used,\n(§3) A: 80% acetonitrile/7% acetic acid/50 mM ammonium acetate and\n(§4) B: 10% acetonitrile/4% acetic acid/50 mM ammonium acetate were used as the eluting solutions and subjected to a linear gradient of A/B (20/80)-A/B (90/10) for 13 minutes and then to elution with solution A for 10 minutes, ODS-AGtypeCAPCELLPAK, 4.6 mm×250 mm, particle diameter 5 μm (manufactured by Shiseido) was used as the column, and the measurement was carried out at a flow rate of 1.0 ml/min and at a temperature of 25° C.), and each concentration was calculated from the standard solutions. Further, the urine concentration was corrected by measuring the amount of creatinine (CRE) in urine, and calculating the amount of porphyrin per CRE."}, "[7]": {"test_system": "human liver cancer cell (HepG2 cell) tumor-bearing nude mice", "assay": "Uroporphyrin and coproporphyrin in urine by HPLC, nude mice bearing human liver cancer cells (Example 5)", "assay_type": "in vivo, nude mice (BALB/cA-nu)", "experimental": "as §2, §3, §4"}, "[8]": {"test_system": "human cervical cancer cell (HeLa cell) tumor-bearing nude mice", "assay": "Uroporphyrin and coproporphyrin in urine by HPLC, nude mice bearing human cervical cancer cells (Example 5)", "assay_type": "in vivo, nude mice (BALB/cA-nu)", "experimental": "as §2, §3, §4"}, "[9]": {"conditions": "tumor-bearing mice, 2 hours after oral 50 μl of 0.12 M"}, "[10]": {"conditions": "mice given human liver cancer cells, after administration"}, "[11]": {"conditions": "tumor-bearing mice (human liver cancer cell), 4 hours after oral 50 μl of 0.12 M, corrected per creatinine"}, "[12]": {"conditions": "mice given human cervical cancer cells, after administration"}, "[13]": {"conditions": "tumor-bearing mice (human cervical cancer cell), 4 hours after oral 50 μl of 0.12 M, corrected per creatinine"}}}
{"smiles": "CCCCCCOC(=O)CCC(=O)CN.Cl", "note": "[δ-aminolevulinic acid hexyl ester hydrochloride]", "values": [{"measurement": "time after administration at which concentrations of protoporphyrin IX and uroporphyrin became maximum", "setting": "[1]", "value": 2, "unit": "h"}, {"measurement": "uroporphyrin in blood of normal mice", "setting": "normal mice [2]", "value": "hardly detected"}]}
{"smiles": "COC(=O)CCC(=O)CN.Cl", "note": "[δ-aminolevulinic acid methyl ester hydrochloride]", "values": [{"measurement": "time after administration at which concentrations of protoporphyrin IX and uroporphyrin became maximum", "setting": "[1]", "value": 2, "unit": "h"}, {"measurement": "uroporphyrin in blood of normal mice", "setting": "normal mice [2]", "value": "hardly detected"}]}
{"smiles": "Cl.NCC(=O)CCC(=O)O", "note": "[δ-aminolevulinic acid hydrochloride]", "values": [{"measurement": "time after administration at which concentrations of protoporphyrin IX and uroporphyrin became maximum", "setting": "[1]", "value": 2, "unit": "h"}, {"measurement": "uroporphyrin in blood of normal mice", "setting": "normal mice [2]", "value": "hardly detected"}, {"measurement": "Ratio of uroporphyrin I/uroporphyrin III in blood", "setting": "[3]", "value": 0.53}, {"measurement": "Uroporphyrin I in blood, after administration", "setting": "[3]", "value": 0.2, "unit": "ng/µL"}, {"measurement": "Uroporphyrin III in blood, after administration", "setting": "[3]", "value": 0.38, "unit": "ng/µL"}, {"measurement": "amounts of uroporphyrin I and uroporphyrin III in urine, tumor-bearing mice in comparison with normal mice", "setting": "[4]; after administration, urine 2 hours", "value": "about 13 times"}, {"measurement": "Ratio of uroporphyrin I/uroporphyrin III in urine", "setting": "[4]; [9]", "value": 0.54}, {"measurement": "Uroporphyrin I in urine, after administration", "setting": "[4]; [9]", "value": 11.95, "unit": "ng/µL"}, {"measurement": "Uroporphyrin III in urine, after administration", "setting": "[4]; [9]", "value": 22.28, "unit": "ng/µL"}, {"measurement": "Ratio of uroporphyrin I/uroporphyrin III in urine", "setting": "normal mice [5]", "value": 0.94}, {"measurement": "Uroporphyrin I in urine, after administration", "setting": "normal mice [5]", "value": 0.95, "unit": "ng/µL"}, {"measurement": "Uroporphyrin III in urine, after administration", "setting": "normal mice [5]", "value": 1.01, "unit": "ng/µL"}, {"measurement": "Coproporphyrin in feces, after administration", "setting": "[6]", "value": 0.21, "unit": "pmol"}, {"measurement": "Uroporphyrin in feces, after administration", "setting": "[6]", "value": 1.75, "unit": "pmol"}]}
{"smiles": "NCC(=O)CCC(=O)O.O=P(O)(O)O", "note": "[δ-aminolevulinic acid phosphate]", "values": [{"measurement": "time after administration at which concentrations of protoporphyrin IX and uroporphyrin became maximum", "setting": "[1]", "value": 2, "unit": "h"}, {"measurement": "uroporphyrin in blood of normal mice", "setting": "normal mice [2]", "value": "hardly detected"}, {"measurement": "Coproporphyrin in urine, after administration", "setting": "normal nude mice", "value": 0.99, "unit": "μmol/g-CRE"}, {"measurement": "Uroporphyrin in urine, after administration", "setting": "normal nude mice", "value": 0.16, "unit": "μmol/g-CRE"}, {"measurement": "amount of coproporphyrin in urine relative to normal mice", "setting": "[7]; [10]", "value": "about 1.5 times"}, {"measurement": "amount of uroporphyrin in urine relative to normal mice", "setting": "[7]; [10]", "value": "about 15 times"}, {"measurement": "Coproporphyrin in urine, after administration", "setting": "[7]; [11]", "value": 1.44, "unit": "μmol/g-CRE"}, {"measurement": "Uroporphyrin in urine, after administration", "setting": "[7]; [11]", "value": 2.47, "unit": "μmol/g-CRE"}, {"measurement": "amount of coproporphyrin in urine relative to normal mice", "setting": "[8]; [12]", "value": "about 2.7 times"}, {"measurement": "amount of uroporphyrin in urine relative to normal mice", "setting": "[8]; [12]", "value": "about 94 times"}, {"measurement": "Coproporphyrin in urine, after administration", "setting": "[8]; [13]", "value": 2.66, "unit": "μmol/g-CRE"}, {"measurement": "Uroporphyrin in urine, after administration", "setting": "[8]; [13]", "value": 15.1, "unit": "μmol/g-CRE"}]}
